Test results taken from ChEMBL document CHEMBL6127103, “Benzoxaborinine, New Chemotype for Carbonic Anhydrase Inhibition: Ex Novo Synthesis, Crystallography, In Silico Studies, and Anti-Melanoma Cell Line Activity” (J Med Chem, 2024).
Calls of active or inactive are those of the source. The rule behind the calls is not given here.

Tests used:
[1] = target: T1, Carbonic anhydrase 1 (Homo sapiens, UniProt P00915); assay: Inhibition of human carbonic anhydrase I assessed as inhibition constant incubated for 15 mins by stopped-flow carbon dioxide hydration assay
T1 sequence (P00915 whole entry): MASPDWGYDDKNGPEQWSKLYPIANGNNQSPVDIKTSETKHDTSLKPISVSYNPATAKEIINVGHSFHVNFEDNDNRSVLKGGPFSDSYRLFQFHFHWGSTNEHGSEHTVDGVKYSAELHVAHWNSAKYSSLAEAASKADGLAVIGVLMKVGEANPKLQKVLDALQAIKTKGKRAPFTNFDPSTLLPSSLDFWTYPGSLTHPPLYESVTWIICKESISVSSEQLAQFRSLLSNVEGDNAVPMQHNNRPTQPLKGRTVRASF

[2] = target: T2, Carbonic anhydrase 12 (Homo sapiens, UniProt O43570); assay: Inhibition of human carbonic anhydrase XII assessed as inhibition constant incubated for 15 mins by stopped-flow carbon dioxide hydration assay
T2 sequence (O43570 whole entry): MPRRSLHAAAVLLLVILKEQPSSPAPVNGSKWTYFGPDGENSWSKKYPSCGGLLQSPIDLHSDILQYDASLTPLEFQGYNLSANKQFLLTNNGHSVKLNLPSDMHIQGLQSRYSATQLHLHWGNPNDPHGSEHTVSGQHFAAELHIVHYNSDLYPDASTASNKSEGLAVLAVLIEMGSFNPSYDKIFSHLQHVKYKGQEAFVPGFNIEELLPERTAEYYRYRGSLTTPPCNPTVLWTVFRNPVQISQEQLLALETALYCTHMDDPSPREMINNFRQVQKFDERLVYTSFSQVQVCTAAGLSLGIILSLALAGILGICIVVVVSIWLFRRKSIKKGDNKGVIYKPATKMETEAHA

[3] = target: T3, Carbonic anhydrase 2 (Homo sapiens, UniProt P00918); assay: Inhibition of human carbonic anhydrase II assessed as inhibition constant incubated for 15 mins by stopped-flow carbon dioxide hydration assay
[4] = target: T4, Carbonic anhydrase 9 (Homo sapiens, UniProt Q16790)
Description: Inhibition of human carbonic anhydrase IX assessed as inhibition constant incubated for 15 mins by stopped-flow carbon dioxide hydration assay

[5] = target: T4, Carbonic anhydrase 9; assay: Inhibition of human carbonic anhydrase IX catalytic domain assessed as inhibition constant incubated for 15 to 360 mins by stopped-flow CO2 hydration assay
[6] = target: T2, Carbonic anhydrase 12; assay: Inhibition of human carbonic anhydrase XII catalytic domain assessed as inhibition constant incubated for 15 to 360 mins by stopped-flow CO2 hydration assay
[7] = tested on: A-375; assay: Anti-melanoma activity against human A-375 cells assessed as inhibition of cell proliferation incubated for 72 hrs by MACSQUant analyzer; assay type: functional, cell-based; settings: A-375, 72 h
[8] = tested on: SK-MEL-2; assay: Anti-melanoma activity against human SK-MEL-2 cells assessed as inhibition of cell proliferation at 200 uM incubated for 72 hrs by MACSQUant analyzer; assay type: functional, cell-based
[9] = tested on: A2058; assay: Anti-melanoma activity against human A2058 cells assessed as inhibition of cell proliferation at 200 uM incubated for 72 hrs by MACSQUant analyzer; assay type: functional, cell-based
[10] = tested on: A-375; assay: Anti-melanoma activity against human A-375 cells assessed as inhibition of cell proliferation at 200 uM incubated for 72 hrs by MACSQUant analyzer; assay type: functional, cell-based
[11] = tested on: A2058; assay: Anti-melanoma activity against human A2058 cells assessed as inhibition of cell proliferation at 100 uM incubated for 72 hrs by MACSQUant analyzer; assay type: functional, cell-based
[12] = tested on: A-375; assay: Anti-melanoma activity against human A-375 cells assessed as inhibition of cell proliferation at 100 uM incubated for 72 hrs by MACSQUant analyzer; assay type: functional, cell-based
[13] = tested on: SK-MEL-2; assay: Anti-melanoma activity against human SK-MEL-2 cells assessed as inhibition of cell proliferation at 100 uM incubated for 72 hrs by MACSQUant analyzer; assay type: functional, cell-based
[14] = tested on: SK-MEL-2; assay: Anti-melanoma activity against human SK-MEL-2 cells assessed as inhibition of cell proliferation at 10 to 300 uM incubated for 72 hrs by MACSQUant analyzer; assay type: functional, cell-based; settings: dose 10-300 µM
[15] = tested on: A-375; assay: Anti-melanoma activity against human A-375 cells assessed as inhibition of cell proliferation at 10 to 300 uM incubated for 72 hrs by MACSQUant analyzer; assay type: functional, cell-based; settings: dose 10-300 µM
[16] = tested on: A2058; assay: Anti-melanoma activity against human A2058 cells assessed as inhibition of cell proliferation at 10 to 300 uM incubated for 72 hrs by MACSQUant analyzer; assay type: functional, cell-based; settings: dose 10-300 µM
[17] = target: T1, Carbonic anhydrase 1; assay: Inhibition of human carbonic anhydrase I assessed as inhibition constant incubated for 15 to 360 mins by stopped-flow CO2 hydration assay
[18] = target: T3, Carbonic anhydrase 2; assay: Inhibition of human carbonic anhydrase II assessed as inhibition constant incubated for 15 to 360 mins by stopped-flow CO2 hydration assay

| Ki [1] | Ki [2] | Ki [3] | Ki [4] | Ki [5] | Ki [6] | Compound | other results |
| --- | --- | --- | --- | --- | --- | --- | --- |
|  |  |  |  | 843 nM | 175 nM | O=C(Nc1ccc(F)cc1)Nc1ccc2c(c1)B(O)OC2 |  |
| 20700 nM | 354 nM | 306 nM | 139 nM |  |  | O=C(Nc1ccc(C(F)(F)F)cc1)Nc1ccc2c(c1)B(O)OCC2 |  |
|  |  |  |  | 845 nM | 93 nM | O=C(Nc1ccc(C(F)(F)F)cc1)Nc1ccc2c(c1)B(O)OC2 |  |
| 1590 nM | 151 nM | 434 nM | 88.5 nM |  |  | OB1OCCc2ccc(NC(=S)Nc3ccc(F)cc3)cc21 |  |
| 523 nM | 46.4 nM | 452 nM | 63.2 nM |  |  | O=[N+]([O-])c1ccc(NC(=S)Nc2ccc3c(c2)B(O)OCC3)cc1 |  |
| 3490 nM | 278 nM | 85.9 nM | 451 nM |  |  | O=C(Nc1ccc(F)cc1)Nc1ccc2c(c1)B(O)OCC2 | Activity [11]: Active; IC50 [7]: 132000 nM; Activity [12]: Active; Activity [13]: Active |
| 16800 nM | 82 nM | 44.9 nM | 349 nM |  |  | OB1OCCc2ccc(NC(=S)Nc3ccc(C(F)(F)F)cc3)cc21 |  |
|  |  |  |  | 336 nM | 89 nM | OB1OCc2ccc(NC(=S)Nc3ccc(F)cc3)cc21 |  |
| 19000 nM | 210 nM | 262 nM | 268 nM |  |  | O=C(Nc1ccccc1)Nc1ccc2c(c1)B(O)OCC2 |  |
|  |  |  |  | 1060 nM | 240 nM | O=C(Nc1ccccc1)Nc1ccc2c(c1)B(O)OC2 |  |

The next lines start with the molecule.

| Compound | Ki [1] | Ki [2] | Ki [3] | Ki [4] | Ki [5] | Ki [6] | other results |
| --- | --- | --- | --- | --- | --- | --- | --- |
| O=[N+]([O-])c1ccc2c(c1)B(O)OCC2 | 44500 nM | 920 nM | 983 nM | 25 nM |  |  |  |
| OB1OCCc2ccc(NC(=S)Nc3ccccc3)cc21 | 798 nM | 191 nM | 295 nM | 312 nM |  |  |  |
| O=C(NCc1ccccc1)Nc1ccc2c(c1)B(O)OC2 |  |  |  |  | 925 nM | 184 nM |  |
| NS(=O)(=O)c1ccc(NC(=O)Nc2ccc(F)cc2)cc1 [SLC-0111] |  |  |  |  |  |  | IC50 [7]: 111000 nM; Activity [8]: Active; Activity [9]: Active; Activity [10]: Active |
| OB1OCCc2ccccc21 [BENZOXABORIN] | 3870 nM | 754 nM | 1950 nM | 9840 nM |  |  |  |
| Nc1ccc2c(c1)B(O)OCC2 | > 100000 nM | 2310 nM | 2920 nM | 45 nM |  |  |  |
| OB1OCc2ccccc21 [BENZOXABOROLE] |  |  |  |  | > 50000 nM | > 50000 nM |  |
| O=[N+]([O-])c1ccc2c(c1)B(O)OC2 |  |  |  |  | 94 nM | 92 nM |  |
| O=C(NCc1ccccc1)Nc1ccc2c(c1)B(O)OCC2 | 637 nM | 80.7 nM | 112 nM | 163 nM |  |  | Activity [14]: Active; IC50 [7]: 31600 nM; Activity [15]: Active; Activity [16]: Active |
| OB1OCCc2ccc(NC(=S)NCc3ccccc3)cc21 | 614 nM | 69 nM | 41.7 nM | 52.8 nM |  |  | Activity [14]: Active; IC50 [7]: 126000 nM; Activity [15]: Active; Activity [16]: Active |
| Nc1ccc2c(c1)B(O)OC2 |  |  |  |  | 813 nM | 640 nM |  |
| OB1OCc2ccc(NC(=S)NCc3ccccc3)cc21 |  |  |  |  | 610 nM | 42 nM | Ki [17]: 380 nM |
| OB1OCc2ccc(NC(=S)Nc3ccccc3)cc21 |  |  |  |  | 436 nM | 76 nM | Ki [18]: 1150 nM; Ki [17]: 548 nM |
